From PubChem BioAssay (NCI)
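At the GI50, growth is halved. The concentration for full growth arrest is given as TGI.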

Key:
Assay in all cases: DTP human tumour cell line panel, 384-well format
[1] = test system: 786-0 renal
[2] = test system: A498 renal
[3] = test system: ACHN renal
[4] = test system: BT-549 breast
[5] = test system: CAKI-1 renal
[6] = test system: CCRF-CEM leukemia
[7] = test system: COLO 205 colon
[8] = test system: DU-145 prostate
[9] = test system: EKVX NSCLC
[10] = test system: HCC-2998 colon
[11] = test system: HCT-116 colon
[12] = test system: HCT-15 colon
[13] = test system: HOP-62 NSCLC
[14] = test system: HOP-92 NSCLC
[15] = test system: HS 578T breast
[16] = test system: HT29 colon
[17] = test system: IGROV1 ovarian
[18] = test system: K-562 leukemia
[19] = test system: KM12 colon
[20] = test system: LOX IMVI melanoma
[21] = test system: M14 melanoma
[22] = test system: MALME-3M melanoma
[23] = test system: MCF7 breast
[24] = test system: MDA-MB-231 breast
[25] = test system: MDA-MB-435 melanoma
[26] = test system: MDA-MB-468 breast
[27] = test system: MOLT-4 leukemia
[28] = test system: NCI-H226 lung
[29] = test system: NCI-H23 lung
[30] = test system: NCI-H322M lung
[31] = test system: NCI-H460 NSCLC
[32] = test system: NCI/ADR-RES ovarian
[33] = test system: OVCAR-3 ovarian
[34] = test system: OVCAR-4 ovarian
[35] = test system: OVCAR-5 ovarian
[36] = test system: OVCAR-8 ovarian
[37] = test system: PC-3 prostate
[38] = test system: RPMI-8226 leukemia
[39] = test system: RXF 393 renal
[40] = test system: SF-268 CNS
[41] = test system: SF-295 CNS
[42] = test system: SF-539 CNS
[43] = test system: SK-MEL-28 melanoma
[44] = test system: SK-MEL-5 melanoma
[45] = test system: SK-OV-3 ovarian
[46] = test system: SN12C renal
[47] = test system: SNB-19 CNS
[48] = test system: SNB-75 CNS
[49] = test system: SW-620 colon
[50] = test system: TK-10 renal
[51] = test system: U251 glioblastoma
[52] = test system: UACC-257 melanoma
[53] = test system: UACC-62 melanoma
[54] = test system: UO-31 renal

With CCN(CCO)CCCOc1ccc2c(Nc3cc(CC(=O)Nc4cccc(F)c4)[nH]n3)ncnc2c1 the GI50 [1] was 16 µM, the TGI [1] was 31.7 µM and the GI50 [2] was 29.8 µM. The TGI [2] was over 100 µM, the GI50 [3] was over 100 µM and the TGI [3] was over 100 µM. It also gave a GI50 [4] of 12 µM, a TGI [4] of 24.4 µM and a GI50 [5] of 11.7 µM. For the same compound, the TGI [5] was 26.4 µM, the GI50 [6] was under 0.01 µM and the GI50 [7] was 0.0236 µM. The TGI [7] was 0.0915 µM, the GI50 [8] was 27.7 µM and the TGI [8] was 92 µM. For the same compound, the GI50 [9] was 14 µM, the TGI [9] was 41.7 µM and the GI50 [10] was 12.8 µM. For the same compound, the TGI [10] was 25.4 µM, the GI50 [11] was 8.43 µM and the TGI [11] was 21.4 µM. It also gave a GI50 [12] of over 100 µM, a TGI [12] of over 100 µM and a GI50 [13] of 11.7 µM. The TGI [13] was 24.1 µM, the GI50 [14] was 8.99 µM and the TGI [14] was 21.2 µM. It also gave a GI50 [15] of 0.0205 µM, a TGI [15] of 18.5 µM and a GI50 [16] of 13.2 µM. For the same compound, the TGI [16] was 26.2 µM, the GI50 [17] was 11.6 µM and the TGI [17] was 24.9 µM. It also gave a GI50 [18] of 10.1 µM, a TGI [18] of 22.7 µM and a GI50 [19] of 3.46 µM. It also gave a TGI [19] of 14.6 µM, a GI50 [20] of 10.2 µM and a TGI [20] of 21.8 µM. The GI50 [21] was 13.3 µM, the TGI [21] was 26.6 µM and the GI50 [22] was 11.3 µM. It also gave a TGI [22] of 23.4 µM, a GI50 [23] of 2.69 µM and a TGI [23] of 18.2 µM. For the same compound, the GI50 [24] was 12 µM, the TGI [24] was 24.5 µM and the GI50 [25] was 13.4 µM. For the same compound, the TGI [25] was 26.3 µM, the GI50 [26] was 0.0155 µM and the TGI [26] was 4.03 µM. The GI50 [27] was under 0.01 µM, the GI50 [28] was 14.4 µM and the TGI [28] was 36.4 µM. For the same compound, the GI50 [29] was 11.8 µM, the TGI [29] was 25.1 µM and the GI50 [30] was 16.2 µM. For the same compound, the TGI [30] was 38.5 µM, the GI50 [31] was 0.0403 µM and the TGI [31] was 16.9 µM. It also gave a GI50 [32] of over 100 µM, a TGI [32] of over 100 µM and a GI50 [33] of 1.63 µM. For the same compound, the TGI [33] was 14.7 µM, the GI50 [34] was 12.2 µM and the TGI [34] was 26.5 µM. It also gave a GI50 [35] of 18.1 µM, a TGI [35] of 51.2 µM and a GI50 [36] of 14.7 µM. It also gave a TGI [36] of 28.9 µM, a GI50 [37] of 15.1 µM and a TGI [37] of 28.6 µM. For the same compound, the GI50 [38] was 7.83 µM, the TGI [38] was 21.2 µM and the GI50 [39] was 0.0465 µM. It also gave a TGI [39] of 20.6 µM, a GI50 [40] of under 0.01 µM and a TGI [40] of 4.6 µM. It also gave a GI50 [41] of 13.8 µM, a TGI [41] of 29.2 µM and a GI50 [42] of 2.31 µM. For the same compound, the TGI [42] was 19.1 µM, the GI50 [43] was 15.5 µM and the TGI [43] was 29 µM. It also gave a GI50 [44] of 11.4 µM, a TGI [44] of 24.8 µM and a GI50 [45] of 9.32 µM. The TGI [45] was 21.4 µM, the GI50 [46] was 10.8 µM and the TGI [46] was 23.4 µM. It also gave a GI50 [47] of 11.7 µM, a TGI [47] of 24.1 µM and a GI50 [48] of 15.1 µM. For the same compound, the TGI [48] was 28.4 µM, the GI50 [49] was 13.7 µM and the TGI [49] was 28.9 µM. For the same compound, the GI50 [50] was 32.5 µM, the TGI [50] was over 100 µM and the GI50 [51] was 12 µM. It also gave a TGI [51] of 24.4 µM, a GI50 [52] of 14.7 µM and a TGI [52] of 27.9 µM. For the same compound, the GI50 [53] was 13.9 µM, the TGI [53] was 26.9 µM and the GI50 [54] was over 100 µM. For the same compound, the TGI [54] was over 100 µM.
